This is an account of results in ChEMBL document CHEMBL5356971, “Optimization of the Antibacterial Spectrum and the Developability Profile of the Novel-Class Natural Product Corramycin” (J Med Chem, 2023).

The test system of data set [1] is Escherichia coli. The experiment in a line: Antibacterial activity against Escherichia coli ATCC 35218 infected in Swiss albino mouse model of Septicaemia infection assessed as log reduction in Septicaemia in blood at 10 mg/kg , iv preincubated for 4 hrs followed by bacterial infection and measured after 4 hrs post infection. In kind it is functional. The note with it: time 8 hrs.

For data set [2], the system named is Acinetobacter baumannii. The experiment in a line: Antibacterial activity against Acinetobacter baumannii ATCC 19606 assessed as reduction in microbial growth incubated for 20 to 22 hrs by CLSI based analysis. In kind it is functional. Particulars: time 20-22 hrs.
The nature of data set [3]: Metabolic stability in mouse kidney assessed as parent compound remaining measured after 4 hrs by UPLC-MS analysis. In kind it is ADME, tissue-based. Particulars: read-out: Stability.
A short description of data set [4]: Metabolic stability in mouse lung assessed as parent compound remaining measured after 1 hrs by UPLC-MS analysis. The note with it: mouse lung, read-out: Stability. It counts as ADME, tissue-based.
Data set [5] has as its system Escherichia coli. The experiment in a line: Antibacterial activity against Escherichia coli ATCC 35218 assessed as reduction in microbial growth incubated for 20 to 22 hrs by CLSI based analysis. In kind it is functional. The note with it: time 20-22 hrs.
Data set [6] deals with Klebsiella pneumoniae. The experiment in a line: Antibacterial activity against Klebsiella pneumoniae ATCC 13883 assessed as reduction in microbial growth incubated for 20 to 22 hrs by CLSI based analysis. It counts as functional. Particulars: time 20-22 hrs.
The nature of data set [7]: Metabolic stability in mouse kidney assessed as parent compound remaining measured after 1 hrs by UPLC-MS analysis. It counts as ADME, tissue-based. The note with it: read-out: Stability.
The nature of data set [8]: Metabolic stability in mouse lung assessed as parent compound remaining measured after 4 hrs by UPLC-MS analysis. It counts as ADME, tissue-based. The note with it: mouse lung, read-out: Stability.
For data set [9], the system named is Klebsiella pneumoniae. Nature of the data set: Antibacterial activity against Klebsiella pneumoniae ATCC 13883 harboring SbmA assessed as reduction in microbial growth incubated for 20 to 22 hrs by CLSI based analysis. In kind it is functional. The note with it: time 20-22 hrs.
Data set [10] in a line: Metabolic stability in mouse kidney assessed as M2 metabolite formation measured upto 4 hrs by UPLC-MS analysis. It counts as ADME, tissue-based.
Data set [11] is described as follows: Metabolic stability in mouse kidney assessed as M1 metabolite formation measured upto 4 hrs by UPLC-MS analysis. It counts as ADME, tissue-based.
The subject of data set [12] is Escherichia coli. Nature of the data set: Antibacterial activity against Escherichia coli D21 assessed as reduction in microbial growth incubated for 20 to 22 hrs by CLSI based analysis. In kind it is functional. The note with it: time 20-22 hrs.
The test system of data set [13] is Escherichia coli. The experiment in a line: Antibacterial activity against Escherichia coli infected in mouse model assessed as mouse survival at 20 mg/kg iv. It counts as functional.
Data set [14] deals with Escherichia coli. The experiment in a line: Antibacterial activity against Escherichia coli D22 assessed as reduction in microbial growth incubated for 20 to 22 hrs by CLSI based analysis. It counts as functional. Particulars: time 20-22 hrs.
The test system of data set [15] is Escherichia coli. Nature of the data set: Antibacterial activity against Escherichia coli ATCC 35218 infected in Swiss albino mouse model of Septicaemia infection assessed as log reduction in Septicaemia in blood at 20 mg/kg , iv preincubated for 4 hrs followed by bacterial infection and measured after 4 hrs post infection. In kind it is functional. The note with it: time 8 hrs.

Data set [16] relates to Klebsiella pneumoniae. The experiment in a line: Antimicrobial activity against Klebsiella pneumoniae assessed as microbial growth inhibition. It counts as functional.
The subject of data set [17] is Klebsiella pneumoniae. The experiment in a line: Antibacterial activity against wild type Klebsiella pneumoniae ATCC 13883 assessed as reduction in microbial growth incubated for 20 to 22 hrs by CLSI based analysis. The note with it: time 20-22 hrs. In kind it is functional.
The subject of data set [18] is Acinetobacter baumannii. The experiment in a line: Antibacterial activity against wild type Acinetobacter baumannii ATCC 19606 assessed as reduction in microbial growth incubated for 20 to 22 hrs by CLSI based analysis. In kind it is functional. Particulars: time 20-22 hrs.
For another data set, the system named is HepG2. Nature of the data set: Cytotoxicity against human HepG2 cells assessed as inhibition of cell growth at 30 uM incubated for 40 hrs by celltiterglo assay. It counts as functional. On the technique in general: ATP-based viability assays read luminescence as a measure of living cells.
Data set [19] concerns Escherichia coli. Nature of the data set: Antibacterial activity against Escherichia coli ATCC 35218 harboring SbmA assessed as reduction in microbial growth incubated for 20 to 22 hrs by CLSI based analysis. In kind it is functional. The note with it: time 20-22 hrs.
Data set [20] in a line: Aqueous solubility of compound in PBS at pH 7.4. It counts as physicochemical.
Data set [21] deals with Voltage-dependent T-type calcium channel subunit alpha-1G (Homo sapiens, UniProt O43497). Nature of the data set: Inhibition of Cav3.1 (unknown origin).
The nature of data set [22]: Lipophilicity, log D of the compound at pH 7.4. In kind it is physicochemical. The note with it: buffer.
For data set [23], the system named is Escherichia coli. The experiment in a line: Antimicrobial activity against Escherichia coli assessed as microbial growth inhibition. It counts as functional.
The subject of another data set is Pseudomonas aeruginosa. The experiment in a line: Antimicrobial activity against Pseudomonas aeruginosa assessed as microbial growth inhibition. In kind it is functional.
Data set [24] deals with Sodium channel protein type 5 subunit alpha (Homo sapiens, UniProt Q14524). The experiment in a line: Inhibition of Nav1.5 (unknown origin).
Chain of Sodium channel protein type 5 subunit alpha (Q14524 whole entry): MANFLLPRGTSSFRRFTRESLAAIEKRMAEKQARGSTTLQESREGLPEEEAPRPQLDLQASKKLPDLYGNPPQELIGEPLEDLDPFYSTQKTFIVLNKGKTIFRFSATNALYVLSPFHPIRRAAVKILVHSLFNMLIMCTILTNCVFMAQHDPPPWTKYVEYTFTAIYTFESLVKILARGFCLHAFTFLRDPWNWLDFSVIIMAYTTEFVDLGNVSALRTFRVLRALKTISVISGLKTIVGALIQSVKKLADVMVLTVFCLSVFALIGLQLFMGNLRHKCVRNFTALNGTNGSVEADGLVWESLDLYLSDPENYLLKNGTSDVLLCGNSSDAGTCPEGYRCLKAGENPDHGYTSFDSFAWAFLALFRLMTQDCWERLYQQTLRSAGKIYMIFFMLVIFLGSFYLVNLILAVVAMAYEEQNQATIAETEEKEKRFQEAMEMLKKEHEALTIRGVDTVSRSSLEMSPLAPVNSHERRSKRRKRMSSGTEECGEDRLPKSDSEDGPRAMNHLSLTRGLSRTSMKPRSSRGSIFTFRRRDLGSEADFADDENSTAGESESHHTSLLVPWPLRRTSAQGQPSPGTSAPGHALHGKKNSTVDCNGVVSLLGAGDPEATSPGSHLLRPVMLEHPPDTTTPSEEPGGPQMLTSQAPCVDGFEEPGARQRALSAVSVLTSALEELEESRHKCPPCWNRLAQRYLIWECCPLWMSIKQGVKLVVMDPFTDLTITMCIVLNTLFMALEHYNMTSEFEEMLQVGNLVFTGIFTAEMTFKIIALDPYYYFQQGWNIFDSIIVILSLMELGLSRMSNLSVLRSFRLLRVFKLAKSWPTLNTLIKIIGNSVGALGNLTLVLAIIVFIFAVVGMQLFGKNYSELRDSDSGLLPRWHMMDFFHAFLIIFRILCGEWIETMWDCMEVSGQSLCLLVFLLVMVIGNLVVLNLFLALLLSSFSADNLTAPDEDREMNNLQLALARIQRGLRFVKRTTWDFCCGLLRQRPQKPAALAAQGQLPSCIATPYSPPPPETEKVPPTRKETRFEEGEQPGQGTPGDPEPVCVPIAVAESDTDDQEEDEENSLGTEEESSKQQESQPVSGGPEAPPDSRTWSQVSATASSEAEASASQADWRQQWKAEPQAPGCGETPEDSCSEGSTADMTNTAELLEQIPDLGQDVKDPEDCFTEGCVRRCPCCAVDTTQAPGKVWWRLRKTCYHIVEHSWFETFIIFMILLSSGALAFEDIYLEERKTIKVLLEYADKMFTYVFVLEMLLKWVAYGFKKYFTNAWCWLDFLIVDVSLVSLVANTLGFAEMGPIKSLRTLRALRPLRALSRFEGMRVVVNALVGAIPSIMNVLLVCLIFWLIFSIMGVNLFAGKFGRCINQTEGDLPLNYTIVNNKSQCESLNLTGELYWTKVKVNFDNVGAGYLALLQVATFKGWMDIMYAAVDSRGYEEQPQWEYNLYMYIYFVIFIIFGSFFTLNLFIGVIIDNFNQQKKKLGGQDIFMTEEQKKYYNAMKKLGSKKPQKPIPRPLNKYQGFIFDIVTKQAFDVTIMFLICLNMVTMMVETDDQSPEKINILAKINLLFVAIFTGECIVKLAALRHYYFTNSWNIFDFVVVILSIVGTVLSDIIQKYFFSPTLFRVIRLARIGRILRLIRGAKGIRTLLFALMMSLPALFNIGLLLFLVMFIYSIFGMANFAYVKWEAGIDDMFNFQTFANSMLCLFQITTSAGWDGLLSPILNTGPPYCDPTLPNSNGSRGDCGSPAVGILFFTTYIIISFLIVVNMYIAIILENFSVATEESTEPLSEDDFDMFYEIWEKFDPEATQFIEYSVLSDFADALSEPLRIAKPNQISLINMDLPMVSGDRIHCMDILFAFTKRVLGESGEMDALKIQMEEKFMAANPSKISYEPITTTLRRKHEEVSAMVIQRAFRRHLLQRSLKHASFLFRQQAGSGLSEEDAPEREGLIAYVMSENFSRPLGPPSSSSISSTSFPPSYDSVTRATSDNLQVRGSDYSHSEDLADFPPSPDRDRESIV
The target of data set [25] is Sodium channel protein type 2 subunit alpha (Homo sapiens, UniProt Q99250). Nature of the data set: Inhibition of Nav1.2 (unknown origin).
Chain of Sodium channel protein type 2 subunit alpha (Q99250 whole entry): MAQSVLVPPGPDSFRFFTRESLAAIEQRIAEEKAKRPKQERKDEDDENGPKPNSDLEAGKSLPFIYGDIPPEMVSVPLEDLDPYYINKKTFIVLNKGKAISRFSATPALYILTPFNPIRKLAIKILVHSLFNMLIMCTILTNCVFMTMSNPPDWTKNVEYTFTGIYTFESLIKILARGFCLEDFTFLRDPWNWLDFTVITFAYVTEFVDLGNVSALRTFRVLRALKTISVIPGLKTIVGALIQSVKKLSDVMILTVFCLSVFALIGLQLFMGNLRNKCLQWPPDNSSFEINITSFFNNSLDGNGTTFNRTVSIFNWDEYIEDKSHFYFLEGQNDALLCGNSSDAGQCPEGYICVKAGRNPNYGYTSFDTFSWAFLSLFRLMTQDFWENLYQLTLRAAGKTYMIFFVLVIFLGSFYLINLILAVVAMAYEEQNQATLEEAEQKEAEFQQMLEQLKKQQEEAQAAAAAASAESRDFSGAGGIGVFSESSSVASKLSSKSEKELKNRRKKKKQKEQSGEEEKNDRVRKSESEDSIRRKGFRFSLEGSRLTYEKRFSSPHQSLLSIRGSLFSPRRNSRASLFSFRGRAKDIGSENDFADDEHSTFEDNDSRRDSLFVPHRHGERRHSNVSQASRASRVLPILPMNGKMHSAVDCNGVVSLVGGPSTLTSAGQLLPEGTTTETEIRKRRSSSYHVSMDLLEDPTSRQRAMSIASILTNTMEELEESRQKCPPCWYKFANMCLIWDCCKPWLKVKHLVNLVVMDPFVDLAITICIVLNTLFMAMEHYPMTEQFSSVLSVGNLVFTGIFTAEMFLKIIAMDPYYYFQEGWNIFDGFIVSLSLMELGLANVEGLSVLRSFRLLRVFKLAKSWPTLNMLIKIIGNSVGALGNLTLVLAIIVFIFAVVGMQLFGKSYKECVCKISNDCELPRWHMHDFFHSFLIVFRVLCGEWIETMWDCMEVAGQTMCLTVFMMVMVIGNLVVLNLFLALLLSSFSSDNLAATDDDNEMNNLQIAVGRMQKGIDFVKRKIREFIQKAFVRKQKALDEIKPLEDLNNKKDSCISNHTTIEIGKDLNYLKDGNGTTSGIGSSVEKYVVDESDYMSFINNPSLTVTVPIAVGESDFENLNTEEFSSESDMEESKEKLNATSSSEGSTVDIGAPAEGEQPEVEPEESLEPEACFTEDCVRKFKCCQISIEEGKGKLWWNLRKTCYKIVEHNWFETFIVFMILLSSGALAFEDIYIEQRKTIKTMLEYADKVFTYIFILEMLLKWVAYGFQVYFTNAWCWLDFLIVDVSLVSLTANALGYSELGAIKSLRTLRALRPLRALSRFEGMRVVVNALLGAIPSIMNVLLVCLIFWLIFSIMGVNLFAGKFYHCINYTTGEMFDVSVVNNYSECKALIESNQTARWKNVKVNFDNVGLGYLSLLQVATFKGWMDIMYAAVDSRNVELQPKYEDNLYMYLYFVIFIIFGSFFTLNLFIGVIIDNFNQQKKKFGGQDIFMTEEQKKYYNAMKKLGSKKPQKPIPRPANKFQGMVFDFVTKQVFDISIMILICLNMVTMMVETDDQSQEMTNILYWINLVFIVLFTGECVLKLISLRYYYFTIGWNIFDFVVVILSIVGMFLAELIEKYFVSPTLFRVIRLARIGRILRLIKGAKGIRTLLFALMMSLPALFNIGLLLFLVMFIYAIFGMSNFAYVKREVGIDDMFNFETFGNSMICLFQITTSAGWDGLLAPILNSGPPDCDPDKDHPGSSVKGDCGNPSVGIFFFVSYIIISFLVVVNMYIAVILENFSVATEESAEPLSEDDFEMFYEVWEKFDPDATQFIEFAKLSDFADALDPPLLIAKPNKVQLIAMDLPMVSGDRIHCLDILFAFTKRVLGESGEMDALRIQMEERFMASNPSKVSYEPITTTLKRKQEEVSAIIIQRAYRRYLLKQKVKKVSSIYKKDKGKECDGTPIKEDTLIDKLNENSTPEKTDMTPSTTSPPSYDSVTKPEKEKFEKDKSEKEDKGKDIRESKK
A short description of data set [26]: Permeability of compound in human Caco-2 cells. The note with it: read-out: permeability. It counts as ADME, cell-based. In general terms: Caco-2 monolayers are a common model of the intestinal barrier.
Data set [27] has as its target Voltage-gated inwardly rectifying potassium channel KCNH2 (Homo sapiens, UniProt Q12809). The experiment in a line: Inhibition of hERG. It counts as toxicity. (hERG is a cardiac potassium channel; its block is linked to QT prolongation.)
The test system of data set [28] is Escherichia coli. Nature of the data set: Antibacterial activity against wild type Escherichia coli ATCC 35218 assessed as reduction in microbial growth incubated for 20 to 22 hrs by CLSI based analysis. It counts as functional. Particulars: time 20-22 hrs.
Data set [29] can be described thus: Metabolic stability in mouse lung assessed as M1 metabolite formation measured upto 4 hrs by UPLC-MS analysis. In kind it is ADME, tissue-based.
Data set [30] concerns the target T1, A-type voltage-gated potassium channel KCND3 (Homo sapiens, UniProt Q9UK17).
T1 sequence (Q9UK17 whole entry): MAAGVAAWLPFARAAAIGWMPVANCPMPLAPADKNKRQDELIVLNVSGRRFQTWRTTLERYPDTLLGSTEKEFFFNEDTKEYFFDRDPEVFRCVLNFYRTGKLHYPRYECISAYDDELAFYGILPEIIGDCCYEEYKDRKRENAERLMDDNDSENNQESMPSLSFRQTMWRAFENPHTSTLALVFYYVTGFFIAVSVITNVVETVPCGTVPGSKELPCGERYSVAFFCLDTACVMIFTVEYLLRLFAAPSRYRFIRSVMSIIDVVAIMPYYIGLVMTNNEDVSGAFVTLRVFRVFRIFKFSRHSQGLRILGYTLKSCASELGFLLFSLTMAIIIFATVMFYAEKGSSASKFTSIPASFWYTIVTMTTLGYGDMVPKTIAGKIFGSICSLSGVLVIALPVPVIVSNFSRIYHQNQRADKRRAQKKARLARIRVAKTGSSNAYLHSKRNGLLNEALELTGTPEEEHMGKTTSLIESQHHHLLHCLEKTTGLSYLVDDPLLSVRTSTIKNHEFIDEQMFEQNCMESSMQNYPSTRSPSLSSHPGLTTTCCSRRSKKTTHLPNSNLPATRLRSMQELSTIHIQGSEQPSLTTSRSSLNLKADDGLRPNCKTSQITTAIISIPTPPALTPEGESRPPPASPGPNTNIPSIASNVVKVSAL
Nature of the data set: Inhibition of Kv4.3 (unknown origin).

pIC50: −log10 of the molar value. In brackets after ≈: the same amount, converted by molar mass. Numbered stars: 1 amine (or outer) side, 2 acyl side, 3 side chain; on linkers, the order of the positions; unused ones are H or OH. Square brackets hold non-standard residues; d marks the D form. Peptide text beside a SMILES is read from it. * marks the point of attachment. Ava(2S,3R-(OH)2,4S-OMe) = CO[C@@H](CN[*:1])[C@H](O)[C@H](O)C(=O)[*:2]; dHis(βS-OH,π-Me) = Cn1cncc1[C@@H](O)[C@@H](N)C(=O)O; Butanoyl(2R-OH,3S-OH) = C[C@H](O)[C@@H](O)C(=O)*; Val(3-OH) = CC(C)(O)[C@H](N)C(=O)O; NMeF = CN[C@@H](Cc1ccccc1)C(=O)O

Chain of Voltage-gated inwardly rectifying potassium channel KCNH2 (Q12809 whole entry): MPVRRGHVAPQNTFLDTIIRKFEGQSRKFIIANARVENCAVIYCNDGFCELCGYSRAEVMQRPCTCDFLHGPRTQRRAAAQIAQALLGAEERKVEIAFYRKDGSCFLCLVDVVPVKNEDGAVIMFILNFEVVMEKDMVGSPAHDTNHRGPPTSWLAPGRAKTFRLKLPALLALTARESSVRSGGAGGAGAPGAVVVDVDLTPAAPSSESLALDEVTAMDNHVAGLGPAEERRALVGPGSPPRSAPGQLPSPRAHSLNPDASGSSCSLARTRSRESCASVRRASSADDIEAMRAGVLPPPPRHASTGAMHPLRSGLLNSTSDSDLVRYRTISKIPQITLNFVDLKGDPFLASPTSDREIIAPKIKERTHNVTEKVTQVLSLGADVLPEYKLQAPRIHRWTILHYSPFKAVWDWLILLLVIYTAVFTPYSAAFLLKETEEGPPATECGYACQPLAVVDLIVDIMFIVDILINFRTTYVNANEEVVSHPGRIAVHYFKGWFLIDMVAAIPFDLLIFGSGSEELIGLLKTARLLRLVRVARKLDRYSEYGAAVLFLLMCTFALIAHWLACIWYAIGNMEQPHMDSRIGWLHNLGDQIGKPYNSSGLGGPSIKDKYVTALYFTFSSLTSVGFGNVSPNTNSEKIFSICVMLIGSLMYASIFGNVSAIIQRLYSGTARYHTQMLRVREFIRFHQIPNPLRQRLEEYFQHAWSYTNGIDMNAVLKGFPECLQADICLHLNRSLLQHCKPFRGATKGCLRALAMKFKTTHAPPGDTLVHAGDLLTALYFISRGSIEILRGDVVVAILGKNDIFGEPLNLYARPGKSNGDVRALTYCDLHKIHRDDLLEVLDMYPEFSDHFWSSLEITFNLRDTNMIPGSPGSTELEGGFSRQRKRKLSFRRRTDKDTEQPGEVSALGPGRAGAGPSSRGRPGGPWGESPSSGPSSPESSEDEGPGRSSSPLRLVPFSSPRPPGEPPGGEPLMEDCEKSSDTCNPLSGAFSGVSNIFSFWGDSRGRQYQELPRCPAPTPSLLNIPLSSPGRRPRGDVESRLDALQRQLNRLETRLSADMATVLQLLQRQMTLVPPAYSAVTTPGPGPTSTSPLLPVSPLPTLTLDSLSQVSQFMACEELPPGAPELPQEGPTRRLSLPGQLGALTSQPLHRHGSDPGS

By MIC is commonly meant the lowest concentration found to suppress growth. As for `CO[C@@H](CNC(=O)[C@H](NC(=O)[C@H](O)[C@H](C)O)[C@H](O)c1cncn1C)[C@H](O)[C@H](O)C(=O)N(C)[C@@H](Cc1ccccc1)C(=O)NCC(=O)N[C@H](C(=O)N[C@@H](CO)C(=O)N[C@H](C(=O)N[C@H](C(=O)N[C@@H](CO)C(=O)O)C(C)(C)C)C(C)(C)O)C(C)(C)O`, in the data set on Escherichia coli [1], the Activity is reported as -5.9 log10CFU. In addition, the minimum inhibitory concentration (MIC) in the data set on Acinetobacter baumannii [2] was over 32 µg/mL; in the data set with Escherichia coli [5], 2 µg/mL; with Klebsiella pneumoniae [6], 2 µg/mL. Also, the remaining at 4 h in data set [3] is 72%; in [8], 104%. Moreover, the remaining at 1 h in data set [4] stood at 105%; in data set [7], 104%.

One may read the inhibition as the change of the read-out against control, counted positive when it falls. What is called solubility is how much of the substance goes into solution per volume. Low values mean a poorly soluble substance, high ones a readily soluble substance. A word on the pIC50: it is −log10 of the IC50, conventionally taken in molar units. The term logD denotes lipophilicity at a set pH, counting ionised and neutral species. `CO[C@@H](CNC(=O)[C@H](NC(=O)[C@H](O)[C@H](C)O)[C@H](O)c1cncn1C)[C@H](O)[C@H](O)C(=O)N(C)[C@@H](Cc1ccccc1)C(=O)NCC(=O)N[C@H](C(=O)N[C@@H](CO)C(=O)N[C@H](C(=O)N[C@@H](CC(C)C)C(=O)N[C@@H](CO)C(=O)O)C(C)(C)O)C(C)(C)O` ({Butanoyl(2R-OH,3S-OH)}-[dHis(βS-OH,π-Me)][Ava(2S,3R-(OH)2,4S-OMe)][NMeF]G[Val(3-OH)]S[Val(3-OH)]LS-OH): the MIC in the data set on Klebsiella pneumoniae [9] is 16 µg/mL; in the data set with Acinetobacter baumannii [2], over 32 µg/mL; in the data set with Escherichia coli [12], 4 µg/mL; in the data set on Escherichia coli [14] it was 0.25 µg/mL; with Klebsiella pneumoniae [16], at least 64 µg/mL; in the data set with Escherichia coli [5], 4 µg/mL. In addition, the MIC in the data set on Klebsiella pneumoniae [17] was 16 µg/mL; in the data set with Acinetobacter baumannii [18], over 32 µg/mL; in the data set with Escherichia coli [19] it was 4 µg/mL; in the data set on Escherichia coli [23], 1 µg/mL (≈ 0.844 µM); in the data set on Pseudomonas aeruginosa, over 64 µg/mL; with Klebsiella pneumoniae [6] it was 16 µg/mL. Besides, the MIC with Escherichia coli [28] is 4 µg/mL. The Drug metabolism entry in data set [10], in [11] and in [29] was “Metabolite_Detected” in each case. For the same molecule, the remaining at 4 h in data set [3] is 6%; in data set [8], 1%. The values for the Activity entry in the data set with Escherichia coli [13] and in the data set with Escherichia coli [15] were “<=60%” and -3.3 log10CFU, respectively. Also, the remaining at 1 h amounted to 7% in data set [4] and 41% in [7]. The inhibition at 30 µM with HepG2 was 0%. For the same molecule, the solubility in [20] was 2800 µg/mL (≈ 2360 µM). Also, the negative-log IC50 (pIC50) in data set [21], in data set [24], in data set [25], in data set [27] and in data set [30] was under 4.52 throughout. The same molecule returned a pH-dependent lipophilicity (logD) in data set [22] of 0.68. Moreover, the Papp in [26] was under 10 ×10⁻⁶ cm/s.
